Laboratory results reported in patent US20080274892A1, “Novel Haloalkylsulfonanilide Derivative, Herbicide, and Method of Use Thereof” (priority 2005, published 2008).

Experiments:
bulrush [1] = assay: Test Example 4: low dosage test for rice paddy weeds; assay type: in vivo, Scirpus juncoides; settings: 300 g/ha as an active ingredient; plants treated at the one leaf stage; 21 days after treatment; vs untreated control
Method in brief: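 Bulrush sown in clay loam pots, flooded to 5 cm water in a hot house, treated at the one-leaf stage with formulated compound at 300 g/ha. Efficacy scored 0–4 against untreated control 21 days after treatment (4 = 90–100%, 0 = 0% inhibition).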

bulrush [2] = assay: Test Example 1: herbicidal efficacy on rice paddy weeds pre-emergence; assay type: in vivo, Scirpus juncoides; settings: 21 days
bulrush [3] = assay: Test Example 2: herbicidal efficacy on rice paddy weeds post-emergence; assay type: in vivo, Scirpus juncoides; settings: post-emergence, one leaf stage, 21 days after treatment
[4] = tested on: paddy rice plant (cultivar: Nihonbare); assay: Test Example 3: phytotoxicity test for transplanted paddy rice plant; assay type: in vivo; settings: transplanted rice, 21 days after treatment
Method in brief: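 Clay loam soil was placed in a 75 cm^2 plastic pot and flooded to a water depth of 5 cm. Two Nihonbare paddy rice plants at the two-leaf stage were transplanted 1 cm deep and grown in a hot house. After treatment, pots stayed in the hot house for 21 days, and phytotoxicity was then graded against an untreated control.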

[5] = tested on: transplanted paddy rice plant and Bulrush; assay: Test Example 5: selectivity between transplanted paddy rice plant and weeds; assay type: in vivo; settings: (highest dosage with no phytotoxicity to paddy rice)/(lowest dosage with effective level 4 on Bulrush); rice 3000-100 g/ha, Bulrush 300-10 g/ha; 21 days
Method in brief: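 Transplanted paddy rice was treated at 3000, 1000, 300 and 100 g/ha active ingredient for phytotoxicity, and post-emergence bulrush at 300, 100, 30 and 10 g/ha. Plants were kept in a hothouse for 21 days. Growth inhibition versus untreated control was scored 0–4 (0%, 1–39%, 40–69%, 70–89%, 90–100%).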

false pimpernel [6] = assay: Test Example 1: herbicidal efficacy on rice paddy weeds pre-emergence; assay type: in vivo, Lindernia pyxidaria; settings: 21 days
false pimpernel [7] = assay: Test Example 2: herbicidal efficacy on rice paddy weeds post-emergence; assay type: in vivo, Lindernia pyxidaria; settings: post-emergence, one leaf stage, 21 days after treatment
barnyard glass = assay: as above; assay type: in vivo, Echinochloa crus-galli; settings: post-emergence, one leaf stage, 21 days after treatment
Method in brief: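 Plastic pots of 75 cm^2 were filled with clay loam soil and sown with barnyard glass and bulrush seeds, then topped with 75 cm^3 soil containing false pimpernel seeds. The pots were flooded to 5 cm water depth and held in a hot house. Twenty-one days after treatment, herbicidal efficacy was graded against an untreated control.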

[8] = dosage 1000 g/ha, treated 5 days after transplantation

CCCCCCCOC(=O)N(c1ccccc1CN1CC(C)(C)OC1=O)S(=O)(=O)C(F)(F)F [1-94]
Herbicide effect to Bulrush (bulrush [1]): 4 (90%-100% of herbicidal efficacy or phytotoxicity) | Bulrush pre (herbicidal efficacy grade) (bulrush [2]; dosage 1000 g/ha): 4 (90%-100% of herbicidal efficacy or phytotoxicity) | Bulrush post (herbicidal efficacy grade) (bulrush [3]; dosage 1000 g/ha): 4 (90%-100% of herbicidal efficacy or phytotoxicity) | Phytotoxicity to paddy rice [4, 8]: 1 (1%-39% of herbicidal efficacy or phytotoxicity) | Selective Index [5]: ≧30 | False pimpernel pre (herbicidal efficacy grade) (false pimpernel [6]; dosage 1000 g/ha): 4 (90%-100% of herbicidal efficacy or phytotoxicity) | False pimpernel post (herbicidal efficacy grade) (false pimpernel [7]; dosage 1000 g/ha): 4 (90%-100% of herbicidal efficacy or phytotoxicity) | Burnyard grass post (herbicidal efficacy grade) (barnyard glass; dosage 1000 g/ha): 4 (90%-100% of herbicidal efficacy or phytotoxicity)

CC(C)COC(=O)N(c1ccccc1CN1CC(C2CC2)(C2CC2)OC1=O)S(=O)(=O)C(F)(F)F [1-171]
Herbicide effect to Bulrush (bulrush [1]): 4 (90%-100% of herbicidal efficacy or phytotoxicity) | Bulrush pre (herbicidal efficacy grade) (bulrush [2]; dosage 1000 g/ha): 4 (90%-100% of herbicidal efficacy or phytotoxicity) | Bulrush post (herbicidal efficacy grade) (bulrush [3]; dosage 1000 g/ha): 4 (90%-100% of herbicidal efficacy or phytotoxicity) | Phytotoxicity to paddy rice [4, 8]: 1 (1%-39% of herbicidal efficacy or phytotoxicity) | Selective Index [5]: 10 | False pimpernel pre (herbicidal efficacy grade) (false pimpernel [6]; dosage 1000 g/ha): 4 (90%-100% of herbicidal efficacy or phytotoxicity) | False pimpernel post (herbicidal efficacy grade) (false pimpernel [7]; dosage 1000 g/ha): 4 (90%-100% of herbicidal efficacy or phytotoxicity) | Burnyard grass post (herbicidal efficacy grade) (barnyard glass; dosage 1000 g/ha): 4 (90%-100% of herbicidal efficacy or phytotoxicity)

COC(=O)N(c1ccccc1CN1C(=O)OC2CCCCC21)S(=O)(=O)C(F)(F)F (stereo not drawn) [1-152]
Herbicide effect to Bulrush (bulrush [1]): 4 (90%-100% of herbicidal efficacy or phytotoxicity) | Bulrush pre (herbicidal efficacy grade) (bulrush [2]; dosage 1000 g/ha): 4 (90%-100% of herbicidal efficacy or phytotoxicity) | Bulrush post (herbicidal efficacy grade) (bulrush [3]; dosage 1000 g/ha): 4 (90%-100% of herbicidal efficacy or phytotoxicity) | Phytotoxicity to paddy rice [4, 8]: 1 (1%-39% of herbicidal efficacy or phytotoxicity) | Selective Index [5]: 10 | False pimpernel pre (herbicidal efficacy grade) (false pimpernel [6]; dosage 1000 g/ha): 4 (90%-100% of herbicidal efficacy or phytotoxicity) | False pimpernel post (herbicidal efficacy grade) (false pimpernel [7]; dosage 1000 g/ha): 4 (90%-100% of herbicidal efficacy or phytotoxicity) | Burnyard grass post (herbicidal efficacy grade) (barnyard glass; dosage 1000 g/ha): 4 (90%-100% of herbicidal efficacy or phytotoxicity)

CC[C@@H]1CN(Cc2ccccc2NS(=O)(=O)C(F)(F)F)C(=O)O1 [1-57]
Herbicide effect to Bulrush (bulrush [1]): 4 (90%-100% of herbicidal efficacy or phytotoxicity) | Bulrush pre (herbicidal efficacy grade) (bulrush [2]; dosage 1000 g/ha): 4 (90%-100% of herbicidal efficacy or phytotoxicity) | Bulrush post (herbicidal efficacy grade) (bulrush [3]; dosage 1000 g/ha): 4 (90%-100% of herbicidal efficacy or phytotoxicity) | Phytotoxicity to paddy rice [4, 8]: 1 (1%-39% of herbicidal efficacy or phytotoxicity) | Selective Index [5]: 10 | False pimpernel pre (herbicidal efficacy grade) (false pimpernel [6]; dosage 1000 g/ha): 4 (90%-100% of herbicidal efficacy or phytotoxicity) | False pimpernel post (herbicidal efficacy grade) (false pimpernel [7]; dosage 1000 g/ha): 4 (90%-100% of herbicidal efficacy or phytotoxicity) | Burnyard grass post (herbicidal efficacy grade) (barnyard glass; dosage 1000 g/ha): 4 (90%-100% of herbicidal efficacy or phytotoxicity)

CC(C)COC(=O)N(c1ccccc1CN1C(=O)OC(C)(C)C1C)S(=O)(=O)C(F)(F)F (stereo not drawn) [1-95]
Herbicide effect to Bulrush (bulrush [1]): 4 (90%-100% of herbicidal efficacy or phytotoxicity) | Bulrush pre (herbicidal efficacy grade) (bulrush [2]; dosage 1000 g/ha): 4 (90%-100% of herbicidal efficacy or phytotoxicity) | Bulrush post (herbicidal efficacy grade) (bulrush [3]; dosage 1000 g/ha): 4 (90%-100% of herbicidal efficacy or phytotoxicity) | Phytotoxicity to paddy rice [4, 8]: 3 (70%-89% of herbicidal efficacy or phytotoxicity) | Selective Index [5]: 30 | False pimpernel pre (herbicidal efficacy grade) (false pimpernel [6]; dosage 1000 g/ha): 4 (90%-100% of herbicidal efficacy or phytotoxicity) | False pimpernel post (herbicidal efficacy grade) (false pimpernel [7]; dosage 1000 g/ha): 4 (90%-100% of herbicidal efficacy or phytotoxicity) | Burnyard grass post (herbicidal efficacy grade) (barnyard glass; dosage 1000 g/ha): 4 (90%-100% of herbicidal efficacy or phytotoxicity)

COC(=O)N(c1ccccc1CN1CC(C)(C2(C)CC2)OC1=O)S(=O)(=O)C(F)(F)F (stereo not drawn) [1-169]
Herbicide effect to Bulrush (bulrush [1]): 4 (90%-100% of herbicidal efficacy or phytotoxicity) | Bulrush pre (herbicidal efficacy grade) (bulrush [2]; dosage 1000 g/ha): 4 (90%-100% of herbicidal efficacy or phytotoxicity) | Bulrush post (herbicidal efficacy grade) (bulrush [3]; dosage 1000 g/ha): 4 (90%-100% of herbicidal efficacy or phytotoxicity) | Phytotoxicity to paddy rice [4, 8]: 1 (1%-39% of herbicidal efficacy or phytotoxicity) | Selective Index [5]: 10 | False pimpernel pre (herbicidal efficacy grade) (false pimpernel [6]; dosage 1000 g/ha): 4 (90%-100% of herbicidal efficacy or phytotoxicity) | False pimpernel post (herbicidal efficacy grade) (false pimpernel [7]; dosage 1000 g/ha): 4 (90%-100% of herbicidal efficacy or phytotoxicity) | Burnyard grass post (herbicidal efficacy grade) (barnyard glass; dosage 1000 g/ha): 4 (90%-100% of herbicidal efficacy or phytotoxicity)

CCCC1(C)CN(Cc2ccccc2NS(=O)(=O)C(F)(F)F)C(=O)O1 (racemic) [1-120]
Herbicide effect to Bulrush (bulrush [1]): 4 (90%-100% of herbicidal efficacy or phytotoxicity) | Bulrush pre (herbicidal efficacy grade) (bulrush [2]; dosage 300 g/ha): 4 (90%-100% of herbicidal efficacy or phytotoxicity) | Bulrush post (herbicidal efficacy grade) (bulrush [3]; dosage 300 g/ha): 4 (90%-100% of herbicidal efficacy or phytotoxicity) | Phytotoxicity to paddy rice ([4]; dosage 300 g/ha): 2 (40%-69% of herbicidal efficacy or phytotoxicity) | Selective Index [5]: 10 | False pimpernel pre (herbicidal efficacy grade) (false pimpernel [6]; dosage 300 g/ha): 4 (90%-100% of herbicidal efficacy or phytotoxicity) | False pimpernel post (herbicidal efficacy grade) (false pimpernel [7]; dosage 300 g/ha): 4 (90%-100% of herbicidal efficacy or phytotoxicity) | Burnyard grass post (herbicidal efficacy grade) (barnyard glass; dosage 300 g/ha): 3 (70%-89% of herbicidal efficacy or phytotoxicity)

COC(=O)N(c1ccccc1CN1CC(C)(CC(C)C)OC1=O)S(=O)(=O)C(F)(F)F (racemic) [1-124]
Herbicide effect to Bulrush (bulrush [1]): 4 (90%-100% of herbicidal efficacy or phytotoxicity) | Bulrush pre (herbicidal efficacy grade) (bulrush [2]; dosage 1000 g/ha): 4 (90%-100% of herbicidal efficacy or phytotoxicity) | Bulrush post (herbicidal efficacy grade) (bulrush [3]; dosage 1000 g/ha): 4 (90%-100% of herbicidal efficacy or phytotoxicity) | Phytotoxicity to paddy rice [4, 8]: 1 (1%-39% of herbicidal efficacy or phytotoxicity) | Selective Index [5]: 10 | False pimpernel pre (herbicidal efficacy grade) (false pimpernel [6]; dosage 1000 g/ha): 4 (90%-100% of herbicidal efficacy or phytotoxicity) | False pimpernel post (herbicidal efficacy grade) (false pimpernel [7]; dosage 1000 g/ha): 4 (90%-100% of herbicidal efficacy or phytotoxicity) | Burnyard grass post (herbicidal efficacy grade) (barnyard glass; dosage 1000 g/ha): 4 (90%-100% of herbicidal efficacy or phytotoxicity)

CCC1(CC)CN(Cc2ccccc2NS(=O)(=O)C(F)(F)F)C(=O)O1 [1-61]
Herbicide effect to Bulrush (bulrush [1]): 4 (90%-100% of herbicidal efficacy or phytotoxicity) | Bulrush pre (herbicidal efficacy grade) (bulrush [2]; dosage 1000 g/ha): 4 (90%-100% of herbicidal efficacy or phytotoxicity) | Bulrush post (herbicidal efficacy grade) (bulrush [3]; dosage 1000 g/ha): 4 (90%-100% of herbicidal efficacy or phytotoxicity) | Phytotoxicity to paddy rice [4, 8]: 1 (1%-39% of herbicidal efficacy or phytotoxicity) | Selective Index [5]: 3 | False pimpernel pre (herbicidal efficacy grade) (false pimpernel [6]; dosage 1000 g/ha): 4 (90%-100% of herbicidal efficacy or phytotoxicity) | False pimpernel post (herbicidal efficacy grade) (false pimpernel [7]; dosage 1000 g/ha): 4 (90%-100% of herbicidal efficacy or phytotoxicity) | Burnyard grass post (herbicidal efficacy grade) (barnyard glass; dosage 1000 g/ha): 4 (90%-100% of herbicidal efficacy or phytotoxicity)

CC[C@@H]1CN(Cc2ccccc2N(C(=O)OCC(C)C)S(=O)(=O)C(F)(F)F)C(=O)O1 [1-58]
Herbicide effect to Bulrush (bulrush [1]): 4 (90%-100% of herbicidal efficacy or phytotoxicity) | Bulrush pre (herbicidal efficacy grade) (bulrush [2]; dosage 1000 g/ha): 4 (90%-100% of herbicidal efficacy or phytotoxicity) | Bulrush post (herbicidal efficacy grade) (bulrush [3]; dosage 1000 g/ha): 4 (90%-100% of herbicidal efficacy or phytotoxicity) | Phytotoxicity to paddy rice [4, 8]: 1 (1%-39% of herbicidal efficacy or phytotoxicity) | Selective Index [5]: ≧30 | False pimpernel pre (herbicidal efficacy grade) (false pimpernel [6]; dosage 1000 g/ha): 4 (90%-100% of herbicidal efficacy or phytotoxicity) | False pimpernel post (herbicidal efficacy grade) (false pimpernel [7]; dosage 1000 g/ha): 4 (90%-100% of herbicidal efficacy or phytotoxicity) | Burnyard grass post (herbicidal efficacy grade) (barnyard glass; dosage 1000 g/ha): 4 (90%-100% of herbicidal efficacy or phytotoxicity)

COC(=O)N(c1ccccc1CN1C(=O)OC(C)(C)C1C)S(=O)(=O)C(F)(F)F (stereo not drawn) [1-148]
Herbicide effect to Bulrush (bulrush [1]): 4 (90%-100% of herbicidal efficacy or phytotoxicity) | Bulrush pre (herbicidal efficacy grade) (bulrush [2]; dosage 1000 g/ha): 4 (90%-100% of herbicidal efficacy or phytotoxicity) | Bulrush post (herbicidal efficacy grade) (bulrush [3]; dosage 1000 g/ha): 4 (90%-100% of herbicidal efficacy or phytotoxicity) | Phytotoxicity to paddy rice [4, 8]: 3 (70%-89% of herbicidal efficacy or phytotoxicity) | Selective Index [5]: ≧30 | False pimpernel pre (herbicidal efficacy grade) (false pimpernel [6]; dosage 1000 g/ha): 4 (90%-100% of herbicidal efficacy or phytotoxicity) | False pimpernel post (herbicidal efficacy grade) (false pimpernel [7]; dosage 1000 g/ha): 4 (90%-100% of herbicidal efficacy or phytotoxicity) | Burnyard grass post (herbicidal efficacy grade) (barnyard glass; dosage 1000 g/ha): 4 (90%-100% of herbicidal efficacy or phytotoxicity)

CCCCOC(=O)N(c1ccccc1CN1C(=O)OC(C)(C)C1OC)S(=O)(=O)C(F)(F)F (stereo not drawn) [1-196]
Herbicide effect to Bulrush (bulrush [1]): 4 (90%-100% of herbicidal efficacy or phytotoxicity) | Bulrush pre (herbicidal efficacy grade) (bulrush [2]; dosage 1000 g/ha): 4 (90%-100% of herbicidal efficacy or phytotoxicity) | Bulrush post (herbicidal efficacy grade) (bulrush [3]; dosage 1000 g/ha): 4 (90%-100% of herbicidal efficacy or phytotoxicity) | Phytotoxicity to paddy rice [4, 8]: 1 (1%-39% of herbicidal efficacy or phytotoxicity) | Selective Index [5]: 10 | False pimpernel pre (herbicidal efficacy grade) (false pimpernel [6]; dosage 1000 g/ha): 4 (90%-100% of herbicidal efficacy or phytotoxicity) | False pimpernel post (herbicidal efficacy grade) (false pimpernel [7]; dosage 1000 g/ha): 4 (90%-100% of herbicidal efficacy or phytotoxicity) | Burnyard grass post (herbicidal efficacy grade) (barnyard glass; dosage 1000 g/ha): 4 (90%-100% of herbicidal efficacy or phytotoxicity)
